Reference: PubChem BioAssay (NCI)
“And” between values parts separate entries of the source, which are not always exact repeats. Equal values may be shown once.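 Protocol summary: plate cells (96-well), add compound at 5 concentrations, incubate 48 h, interpolate endpoints linearly. GI50 = concentration required for 50% inhibition of growth. Definition used: TGI = concentration required for complete inhibition of growth.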

What was measured:
Experiment in all cases: inhibition of tumour cell growth, NCI panel, 48 h
[1] = tested on: SW-620 colon
[2] = tested on: RPMI-8226 leukemia
[3] = tested on: CAKI-1 renal
[4] = tested on: OVCAR-5 ovarian
[5] = tested on: SF-539 CNS
[6] = tested on: OVCAR-8 ovarian
[7] = tested on: IGROV1 ovarian
[8] = tested on: SK-MEL-2 melanoma
[9] = tested on: HS 578T breast
[10] = tested on: MCF7 breast

Structure (SMILES) | TGI [1] [µM] | TGI [2] [µM] | TGI [3] [µM] | TGI [4] | TGI [5] | TGI [6] | TGI [7] | TGI [8] [µM] | TGI [9] [µM] | TGI [10] [µM] | GI50 [2] [µM] | GI50 [3] [µM] | GI50 [4] [µM] | GI50 [5] [µM] | GI50 [9] [µM] | GI50 [6] [µM] | GI50 [7] [µM] | GI50 [8] [µM]
O=C(Cc1nc2c3c(ccc2[nH]c1=O)C(=O)c1ccccc1C3=O)C(=O)Nc1ccccc1[N+](=O)[O-] | 28.6 | 41.1 | 62.9 | 41.1 µM | 34.6 µM | 39.6 µM | 65.4 µM | 45.4 | – | – | – | – | – | – | – | – | – | –
O=C(NC(COC(=O)C(Cc1ccccc1)NC(=O)c1ccccc1)Cc1ccccc1)c1ccccc1 (configuration not stated) | > 50 | > 50 | – | > 50 µM | > 50 µM | > 50 µM | > 50 µM | > 50 | > 50 | > 50 | – | – | – | – | – | – | – | –
CC(C)(C)OC(=O)NCCC(N)=S | > 100 | > 100 | – | > 100 µM | > 100 µM | > 100 µM | > 100 µM | – | > 100 | > 100 | – | – | – | – | – | – | – | –
COc1cc2c(cc1OC)[C@H]1CN3CCC[C@H]3C=C1c1ccc(OC)c(O)c1-2 | – | 0.0012 | 0.000133 | 0.00431 µM and 0.0108 µM | 0.0058 µM and 0.0358 µM | 0.0015 µM and 0.0123 µM | 0.00323 µM and 0.0137 µM | 0.000975 | 0.00677 | – | – | – | – | – | – | – | – | –
CC1=C2C(=C[C@H]3[C@]4(C)CCCC(C)(C)[C@H]4CC[C@]34O[C@H]24)OC1=O | > 100 | > 100 | – | > 100 µM | – | – | > 100 µM | > 100 | – | > 100 | – | – | – | – | – | – | – | –
N#CC1=C(c2ccccc2)NNC(c2ccc(Cl)cc2)CC1=O (configuration not stated) | > 100 | > 100 | > 100 | > 100 µM | – | – | – | 90.4 | – | – | – | – | – | – | – | – | – | –
O=C1Sc2ccccc2C(=O)N2CSCC12 (configuration not stated) | > 100 | > 100 | – | – | > 100 µM | > 100 µM | > 100 µM | > 100 | – | – | – | – | – | – | – | – | – | –
CSC(=Nc1ccccc1)N(c1ccccc1)c1nc(=[N+](C)C)ss1 | 3.27 | 3.14 | 11.3 | 28.6 µM | 14.8 µM | 6.19 µM | 12.8 µM | 11.7 | – | – | – | – | – | – | – | – | – | –
COc1ccc(CC2c3c(cc(OC)c(OC)c3OC)CCN2C)cc1OC (configuration not stated) | > 100 | > 100 | > 100 | > 100 µM | > 100 µM | > 100 µM | – | > 100 | – | – | – | – | – | – | – | – | – | –
COC(=O)CCc1cc(OC)c2c(c1)[C@H](C(=O)OC)[C@@H](c1ccc(O)c(OC)c1)O2 | > 100 | 55.5 | – | > 100 µM | > 100 µM | > 100 µM | > 100 µM | 84.6 | > 100 | > 100 | – | – | – | – | – | – | – | –
CC(=O)Oc1cc(C(F)(F)F)ccc1C(=O)OC1(C)OC(=O)c2ccc(C(F)(F)F)cc2O1 (configuration not stated) | > 100 | – | > 100 | > 100 µM | > 100 µM | > 100 µM | > 100 µM | – | – | > 100 | – | – | – | – | – | – | – | –
CCCCn1cnc2c(c(CC#N)nn2-c2ccccc2)c1=N | > 100 | 73.4 | > 100 | > 100 µM | – | > 100 µM | > 100 µM | 62.1 | > 100 | > 100 | – | – | – | – | – | – | – | –
C(=Nc1ccc(-c2nc3ccccc3o2)cc1)c1ccco1 | > 100 | 36.9 | > 100 | > 100 µM | > 100 µM | > 100 µM | > 100 µM | > 100 | – | > 100 | – | – | – | – | – | – | – | –
CC12CCC3C(CCC4CC(OC(=O)Cc5ccc(N(CCCl)CCCl)cc5)CCC43C)C1CCC(=O)N2 (configuration not stated) | 27.8 | 35.3 | 29.5 | – | 29.4 µM | 29.2 µM | 31 µM | 29.8 | – | – | – | – | – | – | – | – | – | –
COc1ccc(-c2oc(/C=N/NC(N)=S)c([N+](=O)[O-])c2-c2ccc(OC)c(OC)c2)cc1OC | > 100 | 41.5 | > 100 | > 100 µM | 67.6 µM | 81.8 µM | > 100 µM | 35.2 | – | – | – | – | – | – | – | – | – | –
O=c1[nH]cnc(NC2C=C(CO)C(O)C2O)c1[N+](=O)[O-] (configuration not stated) | > 62 | > 71.3 | > 100 | > 100 µM | > 100 µM | > 100 µM | > 100 µM | > 100 | – | – | – | – | – | – | – | – | – | –
CCN(CC)CCCNC(=O)c1ccc([N+](=O)[O-])cc1O | > 100 | – | > 100 | > 100 µM | > 100 µM | > 100 µM | > 100 µM | > 100 | – | – | – | – | – | – | – | – | – | –
O=C1NCC(NC(=O)C(F)(F)F)c2c(Br)sc(Br)c21 (configuration not stated) | > 100 | > 100 | > 100 | > 100 µM | > 100 µM | > 100 µM | > 100 µM | > 100 | – | > 100 | – | – | – | – | – | – | – | –

Structure (SMILES) | TGI [1] [µM] | TGI [2] [µM] | TGI [3] [µM] | TGI [4] | TGI [5] | TGI [6] | TGI [7] | TGI [8] [µM] | TGI [9] [µM] | TGI [10] [µM] | GI50 [2] [µM] | GI50 [3] [µM] | GI50 [4] [µM] | GI50 [5] [µM] | GI50 [9] [µM] | GI50 [6] [µM] | GI50 [7] [µM] | GI50 [8] [µM]
Cc1c(N2C(=O)C(Cl)C2c2ccc(Cl)cc2)c(=O)n(-c2ccccc2)n1C (configuration not stated) | > 100 | 42.6 | > 100 | > 100 µM | > 100 µM | > 100 µM | > 100 µM | > 100 | – | > 100 | – | – | – | – | – | – | – | –
O=C1NCCS(=O)(=O)N[C@@H](CC2=CC=CCC2)C(=O)N2CCCC12 (some centres not stated) | > 100 | > 100 | – | > 100 µM | > 100 µM | > 100 µM | > 100 µM | > 100 | – | – | – | – | – | – | – | – | – | –
O=C(NCCCN(CCCCN(CCCNC(=O)C(F)(F)F)Cc1ccc2ccccc2c1)Cc1ccc2ccccc2c1)C(F)(F)F | > 100 | 7.15 | – | > 100 µM | > 100 µM | > 100 µM | > 100 µM | > 100 | – | 4.54 | – | – | – | – | – | – | – | –
CC1(C)C2CC(=O)C1(C)C(O)C2Br (configuration not stated) | > 100 | – | – | > 100 µM | > 100 µM | > 100 µM | > 100 µM | > 100 | > 100 | > 100 | – | – | – | – | – | – | – | –
COc1c(O)c2c3c(c(C)cc(O)c3c1O)C(=O)C(O)(C(C)(C)C(C)=O)C2=O (configuration not stated) | > 100 | > 100 | > 100 | > 100 µM | > 100 µM | > 100 µM | > 100 µM | > 100 | – | – | – | – | – | – | – | – | – | –
Nc1nc(N)c(N=O)c(Nc2ccc(Br)cc2)n1 | > 100 | – | > 100 | > 100 µM | 56.5 µM | > 100 µM | 39.4 µM | 49.6 | – | – | – | – | – | – | – | – | – | –
O=C(Cc1ccccc1)NN1C(=O)/C(=C\c2ccccc2)SC1=Nc1ccccc1 | > 100 | – | – | > 100 µM | > 100 µM | > 100 µM | > 100 µM | > 100 | > 100 | > 100 | – | – | – | – | – | – | – | –
CCOC(=O)C1(C(=O)OCC)COS(=O)OC1 | 36.1 | – | – | – | – | > 100 µM | – | – | > 100 | 36.6 | – | – | – | – | – | – | – | –
N=C(N)c1ccc(-c2ccc(-c3cccs3)s2)cc1 | – | 2.12 | 4.23 | 2.68 µM | 3.09 µM | 4.79 µM | 3.53 µM | 32 | 9.62 | – | 0.267 | 1.89 | 1.17 | 1.65 | 2.99 | 1.79 | 1.84 | 13.4
C[C@]12CC[C@@H]3c4ccc(O)cc4CC[C@H]3[C@@H]1C/C(=C\c1ccncc1)[C@@H]2O | > 100 | 24.6 | 75.2 | > 100 µM | – | 31.7 µM | 28.7 µM | 37.4 | 20.9 | 30.2 | – | – | – | – | – | – | – | –
CC(C(=O)N1C(=O)N(C(=O)C(C)C(O)c2ccccc2)C2CCCCC21)C(O)c1ccccc1 (configuration not stated) | > 100 | > 100 | – | > 100 µM | – | > 100 µM | > 100 µM | > 100 | – | – | – | – | – | – | – | – | – | –
CC1=NN(C(=O)CC(=O)Nc2ccccc2F)C(=O)C1N=Nc1ccccc1[N+](=O)[O-] (configuration not stated) | > 100 | > 100 | > 100 | > 100 µM | > 100 µM | > 100 µM | > 100 µM | > 100 | – | – | – | – | – | – | – | – | – | –
CC(=O)c1cccn1/C=C(\OC(=O)OC(C)(C)C)c1ccc[nH]1 | > 100 | > 100 | 91.2 | > 100 µM | – | > 100 µM | > 100 µM | > 100 | > 100 | > 100 | – | – | – | – | – | – | – | –
O=C(CN(c1ccccc1)c1ccccc1)N1c2ccccc2C2C=CC=CC21 (configuration not stated) | > 53.5 | > 28.1 | 32.2 | > 57.8 µM | 43.8 µM | 53.5 µM | 47.3 µM | 38.8 | – | – | – | – | – | – | – | – | – | –
Cc1cc(-c2nc3ccccc3s2)ccc1NC(=O)[C@@H](N)CCCCN | 25.3 | – | 20.8 | 25.7 µM | – | 17.1 µM | 17.2 µM | 30 | 45.3 | 11.7 | – | – | – | – | – | – | – | –
CCC1=CC2CN3Cn4c(c(COCc5c6n(c7ccccc57)CN5CC7C=C(CC)C5C6(C(=O)OC)C7)c5ccccc54)C(C(=O)OC)(C2)C13 | > 100 | > 100 | > 100 | – | – | > 100 µM | > 100 µM | > 100 | – | – | – | – | – | – | – | – | – | –
S=C(/N=c1\sc(Nc2ccc(Cl)cc2)nc2sc3c(c12)CCN(N1CCc2c(sc4nc(Nc5ccc(Cl)cc5)s/c(=N\C(=S)Nc5ccc(Cl)cc5)c24)C1)C3)Nc1ccc(Cl)cc1 | > 100 | – | – | 54.2 µM | 35.6 µM | > 100 µM | > 100 µM | 52.2 | > 100 | > 100 | – | – | – | – | – | – | – | –
CC(=O)OCC1OC(n2cc(I)c(=O)[nH]c2=O)C(OC(C)=O)C(OC(C)=O)C1OC(C)=O (configuration not stated) | > 100 | > 100 | > 100 | > 100 µM | – | > 100 µM | > 100 µM | > 100 | – | – | – | – | – | – | – | – | – | –
